The IC50 is the concentration that gives 50% inhibition. In general, inhibition refers to how much of the control response was suppressed.

Test [1] has as its system Isolated Rat Bladder Strips. The experiment in a line: Inhibition of Contractions in Isolated Rat Bladder Strips (15 mM KCl-enhanced contractile activity). Also noted: species or system Sprague-Dawley rats. Conditions: for activity at 30 µM: read-out: Percent contraction at 30 μM (C); for inhibition at 30 µM: read-out: Percent inhibition at 30 μM (I). The source says:
The smooth muscle relaxing activity of the compounds of this invention was established in accordance with standard pharmaceutically accepted test procedures with representative compounds as follows:
Sprague-Dawley rats (150-200 g) are rendered unconscious by CO2 asphyxiation and then euthanized by cervical dislocation. The bladder is removed into warm (37 deg.C.) physiological salt solution (PSS) of the following composition (mM): NaCl, 118.4; KCl, 4.7; CaCl2, 2.5; […]; NaHCO3, 24.9; KH2 PO4, 1.2; glucose, 11.1; EDTA, 0.023; gassed with […]; pH 7.4. The bladder is opened and then cut into strips 1-2 mm in width and 7-10 mm in length. The strips are subsequently suspended in a 10 mL tissue bath under an initial resting tension of 1.5 g. The strips are held in place by two surgical clips one of which is attached to a fixed hook while the other is attached to an isometric force transducer. […] The carbachol is then washed out and the tissue allowed to relax to its resting level of activity. Following a further 30 minute period of recovery an additional 15 mM KCl are introduced into the tissue bath. This increase in KCl concentration results in a large increase in the amplitude of spontaneous contractions (and initiation of contractions in previously quiescent strips) superimposed upon a small increase in basal tone. Following stabilization of this enhanced level of contractile activity, incremental increases in the concentration of test compound or vehicle are introduced into the tissue bath. Contractile activity is measured for each compound or vehicle concentration during the last minute of a 30 minute challenge.
The isometric force developed by the bladder strips is measured using a […]. The (IC50 concentration) is calculated from this concentration-response curve.

The subject of test [2] is hypertrophied bladder (detrussor) smooth muscle in conscious female rats. The experiment in a line: Inhibition of Spontaneous Contractions In Vivo in the hypertrophied rat bladder model (cystometry, conscious rats). On the set-up: species or system Female Sprague-Dawley rats. Here is the method:
In addition, we tested the ability of compounds to inhibit the hyperactivity of hypertrophied bladder (detrussor) smooth muscle in conscious female rats with hypertrophied bladders and thereby alleviate urinary incontinence in rats according to the following protocol described by Malmgren et al., J. Urol. 142:1134, 1989:
Female Sprague-Dawley rats, ranging in weight from 190-210 g are used. Up to 25 animals are prepared each time. After developemnt of bladder hypertrophy 4-8 animals are used per test.
Compounds are dissolved in PEG-200 and administered by gastric gavage or intraveneously in a volume of 5 ml/kg. For primary screening all drugs are administered at the arbitrary dose of 10 mg/kg p.o. to groups of 4 rats.
The animals are anesthetized with halothane. Through a midline incision the bladder and urethra are exposed and a ligature of 4-0 silk is tied around the proximal urethra in the presence of a stainless steel rod (1 mm diameter) to produce a partial occlusion. The rod is then removed. The abdominal region is closed using surgical staples and each rat receives 150,000 units of bicillin C-R. The animals are allowed six weeks to develop sufficient bladder hypertrophy. After six weeks, the ligature is removed under halothane anesthesia and a catheter (PE 60) with a cuff is placed in the dome of the bladder and secured with a purse string suture. The catheter is tunneled under the skin and exteriorized through an opening in the back of the neck. The abdominal incision is sutured and the free end of the catheter sealed. In order to prevent infections the rats receive an injection of bicillin C-R (150000 units/rat). Two days later the animals are used in cystometrical evaluations, The animals are placed in the metabolic cages and the catheter is attached (using a "T" connector) to a Statham pressure transducer (Model P23Db) and to a Harvard infusion pump. A plastic beaker attached to a force displacement transducer (Grass FTO3) is placed under the rat's cage to collect and record urine volume. Animals are allowed 15-30 minutes to rest before the saline infusion (20 ml/hr for 20 minutes) is started for the first cystometry period. Two hours after the first cystometry period, the rats are dosed with the vehicle or the test compound and one hour later a second cystometry is performed.
The following urodynamic variables are recorded:
The mean value of each variable is calculated before and after compound administration. For each compound the changes in the variables measured are compared to the values obtained before treatment and expressed as percent inhibition. The data are also subjected to 2-way analysis of variance to determine significant (p<0.05) changes in the variable measured. The most characteristic finding in this rat model is spontaneous bladder contractions which develop during filling.

The mark [3] stands for this setting: 0.5 h, isolated rat bladder strips, 15 mM KCl, 30 minute challenge, read-out: IC50, inhibition of contractions in isolated rat bladder strips.
The mark [4] stands for this setting: 0.5 h, isolated rat bladder strips.

Where two headings read alike, the source gives them in different places.

As to `CC(Nc1c(NCc2ccc(Cl)cc2Cl)c(=O)c1=O)C(C)(C)C` (stereo not drawn) [Example 2, 3-(2,4-Dichlorobenzylamino)-4-(1,2,2-trimethylproylamino)-cyclobut-3-ene-1,2-dione], the IC50 in test [1] (setting [3]) is 2000 ± 1000 nM.

In the case of `Cc1cc(Cl)cc(Cl)c1CNc1c(N[C@H](C)C(C)(C)C)c(=O)c1=O` [Example 4, (R)-3-(2,4-dichloro-6-methyl-benzylamino)-4-(1,2,2-trimethyl-propylamino)-cyclobut-3-ene-1,2-dione], the IC50 in test [1] (setting [3]) stood at 9800 ± 5100 nM.

With `CCC(C)(C)Nc1c(NCc2ccc(Cl)cc2Cl)c(=O)c1=O` [Example 6, 3-(2,4-Dichlorobenzylamino)-4-(1,1-dimethylpropylamino)-cyclobut-3-ene-1,2-dione], the IC50 in test [1] (setting [3]) was found to be 110 ± 2 nM; in test [1] (Rattus norvegicus, prior lot of this compound, mp. 195-196° C., n = 4, read-out: IC50, prior lot), 210 ± 40 nM. Also, the “% Red (F): percent reduction in the total number of spontaneous contractions” value (“% Red (F): percent reduction” below) is given as -40 ± 13% in test [2] (1 mg/kg p.o., prior lot, mp. 195-196° C.); -58 ± 9% in test [2] (3 mg/kg p.o., prior lot, mp. 195-196° C.); -68 ± 10% in test [2] (10 mg/kg p.o., prior lot, mp. 195-196° C.).

On to `CCC(C)(C)Nc1c(N(Cc2ccc(Cl)cc2Cl)C(C)=O)c(=O)c1=O` [Example 7, N-(2,4-dichloro-benzyl)-N-[2-(1,1-dimethyl-propylamino)-3,4-dioxo-cyclobut-1-enyl]-acetamide], for which the 50% inhibitory concentration (IC50) in test [1] (setting [3]) turned out to be 15800 ± 50 nM.

Regarding `CCCC(=O)N(Cc1ccc(Cl)cc1Cl)c1c(NC(C)(C)CC)c(=O)c1=O` [Example 8, N-(2,4-dichloro-benzyl)-N-[2-(1,1-dimethyl-propylamino)-3,4-dioxo-cyclobut-1-enyl]-butyramide], the activity at 30 µM in test [1] (setting [4]) stood at 82.8 ± 26%. Further, in test [1] (isolated rat bladder strips), the inhibition at 30 µM was found to be 10.2%.

In the case of `CCC(C)(C)Nc1c(NCc2c(C)cc(Cl)cc2Cl)c(=O)c1=O` [Example 9, 3-(2,4-Dichloro-6-methyl-benzylamino)-4-(1,1-dimethyl-propylamino)-cyclobut-3-ene-1 2-dione], in test [1] (setting [3]), the IC50 stood at 200 ± 60 nM. For the same compound, the figures for the “% Red (F): percent reduction” value in test [2] (1 mg/kg p.o.) and in test [2] (3 mg/kg p.o.) were -63 ± 13% and -82 ± 5%, respectively.

Regarding `CC(C)(C)Nc1c(NCc2ccc(Cl)cc2Cl)c(=O)c1=O` [Example 11, 3-(t-Butylamino)-4-(2,4-dichlorobenzylamino) cyclobut-3-ene-1,2-dione], the IC50 in test [1] (setting [3]) was 1300 ± 600 nM.

For `Cc1cc(Cl)cc(Cl)c1CNc1c(NC(C)(C)C)c(=O)c1=O` [Example 12, 3-tert-butylamino-4-(2,4-dichloro-6-methyl-benzylamino)-cyclobut-3-ene-1,2-dione], the IC50 in test [1] (setting [3]) was determined as 220 ± 80 nM. Besides, in test [2] (3 mg/kg p.o.), the “% Red (F): percent reduction” value was -53 ± 18%.

For the compound `CCC(CC)Nc1c(NCc2ccc(Cl)c(Cl)c2)c(=O)c1=O` [Example 14, 3-(3,4-Dichloro-benzylamino)-4-(1-ethyl-propylamino)-cyclobut-3-ene-1,2-dione], the inhibition at 30 µM in test [1] (isolated rat bladder strips) was determined as 22 ± 5.9%.

As to `CCC(CC)Nc1c(NCc2ccc(Cl)cc2Cl)c(=O)c1=O` [Example 15, 3-(2,4-dichloro-benzylamino)-4-(1-ethyl-propylamino)-cyclobut-3-ene-1,2-dione], the IC50 in test [1] (setting [3]) was 2000 ± 800 nM.

As to `Cc1cc(Cl)cc(Cl)c1CNc1c(NCC(F)(F)C(F)(F)F)c(=O)c1=O` [Example 16], in test [1] (setting [3]), the IC50 is 9350 ± 460 nM. Also, in test [1] (isolated rat bladder strips), the inhibition at 30 µM was determined as 36 ± 3.2%.

As for `CCCC(=O)N(Cc1c(C)cc(Cl)cc1Cl)c1c(NC(C)(C)CC)c(=O)c1=O` [Example 17, N-(2,4-Dichloro-6-methyl-benzyl)-N-[2-(1,1-dimethyl-2proplylamino)-3,4-dioxo-cyclobut-1-envl]-butyramide], the activity at 30 µM in test [1] (setting [4]) turned out to be 245 ± 15%. Moreover, the “% Red (F): percent reduction” value in test [2] (10 mg/kg p.o.) is reported as -87 ± 2%.

For the compound `CCC(C)(C)Nc1c(N(Cc2c(C)cc(Cl)cc2Cl)C(C)=O)c(=O)c1=O` [Example 18, N-(2,4-Dichloro-6-methyl-benzyl)-N-[2-(1,1-dimethyl-propylamino)-3,4-dioxo-cyclobut-1-enyl]-acetamide], the inhibition at 30 µM in test [1] (isolated rat bladder strips) was determined as 26 ± 13.8%.

Turning to `CCC(=O)N(c1c(NCc2c(C)cc(Cl)cc2Cl)c(=O)c1=O)C(C)(C)C` [Example 19, N-(tert-butyl)-N-[2-(2,4-Dichloro-6-methyl-benzylamino)-3,4-dioxo-cylobut-1-enyl]-propionamide], the activity at 30 µM in test [1] (setting [4]) worked out at 92.5 ± 44.2%.

`Cc1cc(Cl)cc(Cl)c1CNc1c(NC(C)C(C)(C)F)c(=O)c1=O` (stereo not drawn) [Example 20, 3-(2,4-dichloro-6-methyl-benzylamino)-4-(1,2-dimethyl-2-fluoro-propylamino)-cyclobut-3-ene-1,2-dione]: in test [1] (setting [3]), the IC50 is 2530 ± 190 nM.

For `CC(C)(CO)Nc1c(NCc2ccc(Cl)cc2Cl)c(=O)c1=O` [Example 22, 3-(2,4-Dichlorobenzylamino)-4-(2-hvdroxy-1,1-dimethylethylamino)-cyclobut-3-ene-1,2-dione], the IC50 in test [1] (setting [3]) worked out at 24000 ± 9300 nM.

With `C[C@@H](Nc1c(NCc2ccc(Cl)cc2Cl)c(=O)c1=O)C(C)(C)C` [Example 23, (R)-3-(2,4-dichlorobenzylamino)-4-(1,2,2-trimethylpropylamino)-cyclobut-3-ene-1,2-dione], in test [1] (setting [3]), the IC50 came out at 340 ± 220 nM.

Regarding `CC(C)(C)Nc1c(NCc2ccc(Cl)c(Cl)c2)c(=O)c1=O` [Example 24, 3-tert-Butylamino-4-(3,4-dichlorobenzylamino)-cyclobut-3-ene-1,2-dione], the activity at 30 µM in test [1] (setting [4]) came to 30%. Further, the 50% inhibitory concentration (IC50) in test [1] (setting [3]) was 1480 ± 570 nM. Further, the inhibition at 30 µM in test [1] (isolated rat bladder strips) is 32.5 ± 3.1%.

For the compound `CCC(C)(C)Nc1c(NCc2ccc(Cl)c(Cl)c2)c(=O)c1=O` [Example 25], the activity at 30 µM in test [1] (setting [4]) turned out to be 57.9 ± 4.2%. Moreover, in test [1] (setting [3]), the IC50 worked out at 8900 ± 4000 nM.

For `CCC(C)(C)Nc1c(N(Cc2c(C)cc(Cl)cc2Cl)C(=O)OC(C)(C)C)c(=O)c1=O` [Example 26, (2,4-Dichloro-6-methyl-benzyl)-[2-(1,1-dimethyl-propylamino)-3,4-dioxo-cyelobut-1-enyl]-carbamic acid tert-butyl ester], the IC50 in test [1] (setting [3]) turned out to be 4500 ± 4200 nM.
